# Test results from patent US6770597B2, “Benzohydrazide derivatives as herbicides and desiccant compositions containing them” (Ishihara Sangyo Kaisha, Ltd., priority 2002, dated 2004).
# Legend:
# Assay type in all cases: in vivo
# [1] = tested on: wheat (Triticum aestivum L.); assay: Greenhouse herbicide screen, post-emerge application, crop damage rating; details: POST emergent, 14 days after application, scale 0-100
# Outline: (§1)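 Phytotoxicity read at 14 days on a 0–100 visual scale. Plants were treated either pre-emergence, one day after planting in sandy loam, or post-emergence at about 2–3 leaves, with acetone sprays at 15–1000 g ai/ha.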
# [2] = tested on: soybean (Glycine max L., var. Pella 86, SOY); assay: as above; details: POST emergent, 14 days after application, scale 0-100
# Outline: as §1
# [3] = tested on: upland rice (Oryza sp., var.Cocodrie, RICE); assay: as above; details: POST emergent, 14 days after application, scale 0-100
# Outline: as §1
# [4] = tested on: field corn (Zea mays L., var. Dekalb 535, CORN); assay: as above; details: POST emergent, 14 days after application, scale 0-100
# Outline: as §1
# [5] = tested on: wheat (Triticum aestivum L.); assay: Greenhouse herbicide screen, pre-emerge application, crop damage rating; details: PRE emergent, 14 days after application, rating scale 0-100
# Outline: as §1
# [6] = tested on: soybean (Glycine max L., var. Pella 86, SOY); assay: as above; details: PRE emergent, 14 days after application, rating scale 0-100
# Outline: as §1
# [7] = tested on: upland rice (Oryza sp., var.Cocodrie, RICE); assay: as above; details: PRE emergent, 14 days after application, rating scale 0-100
# Outline: as §1
# [8] = tested on: field corn (Zea mays L., var. Dekalb 535, CORN); assay: as above; details: PRE emergent, 14 days after application, rating scale 0-100
# Outline: as §1
# [9] = tested on: ivyleaf morningglory (Ipomoea hederacea, IPOHE); assay: Greenhouse herbicide screen, pre-emerge application, phytotoxicity rating; details: PRE emergent, 14 days after application, rating scale 0-100
# Outline: as §1
# [10] = tested on: cocklebur (Xanthium strumarium, XANST); assay: as above; details: PRE emergent, 14 days after application, rating scale 0-100
# Outline: as §1
# [11] = tested on: johnsongrass (Sorghum halepense, SORHA); assay: as above; details: PRE emergent, 14 days after application, rating scale 0-100
# Outline: as §1
# [12] = tested on: common ragweed (Ambrosia artemisiifolia L., AMBEL); assay: as above; details: PRE emergent, 14 days after application, rating scale 0-100
# Outline: as §1
# [13] = tested on: velvetleaf (Abutilon theophrasti, ABUTH); assay: as above; details: PRE emergent, 14 days after application, rating scale 0-100
# Outline: as §1
# [14] = tested on: barnyardgrass (Echinochloa crus-galli, ECHCG); assay: as above; details: PRE emergent, 14 days after application, rating scale 0-100
# Outline: as §1
# [15] = tested on: large crabgrass (Digitaria sanguinalis, DIGSA); assay: as above; details: PRE emergent, 14 days after application, rating scale 0-100
# Outline: as §1
# [16] = tested on: redroot pigweed (Amaranthus retrofiexus, AMARE); assay: as above; details: PRE emergent, 14 days after application, rating scale 0-100
# Outline: as §1
# [17] = tested on: green foxtail (Setaria viridis, SETVI); assay: as above; details: PRE emergent, 14 days after application, rating scale 0-100
# Outline: as §1
# [18] = tested on: sicklepod (Cassia obtusifolia, CASOB); assay: as above; details: PRE emergent, 14 days after application, rating scale 0-100
# Outline: as §1
# [19] = tested on: lambsquarters (Chenopodium album, CHEAL); assay: as above; details: PRE emergent, 14 days after application, rating scale 0-100
# Outline: as §1
# [20] = tested on: ivyleaf morningglory (Ipomoea hederacea, IPOHE); assay: Greenhouse herbicide screen, post-emerge application, phytotoxicity rating; details: POST emergent, 14 days after application, scale 0-100
# Outline: as §1
# [21] = tested on: cocklebur (Xanthium strumarium, XANST); assay: as above; details: POST emergent, 14 days after application, scale 0-100
# Outline: as §1
# [22] = tested on: johnsongrass (Sorghum halepense, SORHA); assay: as above; details: POST emergent, 14 days after application, scale 0-100
# Outline: as §1
# [23] = tested on: common ragweed (Ambrosia artemisiifolia L., AMBEL); assay: as above; details: POST emergent, 14 days after application, scale 0-100
# Outline: as §1
# [24] = tested on: velvetleaf (Abutilon theophrasti, ABUTH); assay: as above; details: POST emergent, 14 days after application, scale 0-100
# Outline: as §1
# [25] = tested on: barnyardgrass (Echinochloa crus-galli, ECHCG); assay: as above; details: POST emergent, 14 days after application, scale 0-100
# Outline: as §1
# [26] = tested on: large crabgrass (Digitaria sanguinalis, DIGSA); assay: as above; details: POST emergent, 14 days after application, scale 0-100
# Outline: as §1
# [27] = tested on: redroot pigweed (Amaranthus retrofiexus, AMARE); assay: as above; details: POST emergent, 14 days after application
# Outline: as §1
# [28] = tested on: green foxtail (Setaria viridis, SETVI); assay: as above; details: POST emergent, 14 days after application, scale 0-100
# Outline: as §1
# [29] = tested on: sicklepod (Cassia obtusifolia, CASOB); assay: as above; details: POST emergent, 14 days after application, scale 0-100
# Outline: as §1
# [30] = tested on: lambsquarters (Chenopodium album, CHEAL); assay: as above; details: POST emergent, 14 days after application, scale 0-100
# Outline: as §1
smiles,measurement,setting,value
"Cn1c(C(F)(F)F)cc(=O)n(-c2cc(C(=O)NNC(=O)OC(C)(C)C)c(Cl)cc2F)c1=O [Compound 1-24, 2-chloro-5-(3,6-dihydro-3-methyl-2,6-dioxo-4-(trifluoromethyl)-1(2H)-pyrimidinyl)-4-fluoro-benzoic Acid, 2-(1,1-dimethylethyloxy)carbonyl Hydrazide]",crop damage rating WHEAT,[1]; 63 g ai/ha,15
same,crop damage rating WHEAT,[1]; 250 g ai/ha,60
same,crop damage rating SOY,[2]; 63 g ai/ha,8
same,crop damage rating SOY,[2]; 250 g ai/ha,15
same,crop damage rating RICE,[3]; 63 g ai/ha,60
same,crop damage rating RICE,[3]; 250 g ai/ha,65
same,crop damage rating CORN,[4]; 63 g ai/ha,90
same,crop damage rating CORN,[4]; 250 g ai/ha,95
same,crop damage rating WHEAT,[5]; 63 g ai/ha,20
same,crop damage rating WHEAT,[5]; 250 g ai/ha,60
same,crop damage rating SOY,[6]; 63 g ai/ha,50
same,crop damage rating SOY,[6]; 250 g ai/ha,100
same,crop damage rating RICE,[7]; 63 g ai/ha,5
same,crop damage rating RICE,[7]; 250 g ai/ha,30
same,crop damage rating CORN,[8]; 63 g ai/ha,0
same,crop damage rating CORN,[8]; 250 g ai/ha,100
same,phytotoxicity rating IPOHE,[9]; 63 g ai/ha,100
same,phytotoxicity rating IPOHE,[9]; 250 g ai/ha,100
same,phytotoxicity rating XANST,[10]; 63 g ai/ha,50
same,phytotoxicity rating XANST,[10]; 250 g ai/ha,90
same,phytotoxicity rating SORHA,[11]; 63 g ai/ha,0
same,phytotoxicity rating SORHA,[11]; 250 g ai/ha,40
same,phytotoxicity rating AMBEL,[12]; 63 g ai/ha,50
same,phytotoxicity rating AMBEL,[12]; 250 g ai/ha,75
same,phytotoxicity rating ABUTH,[13]; 63 g ai/ha,98
same,phytotoxicity rating ABUTH,[13]; 250 g ai/ha,99
same,phytotoxicity rating ECHCG,[14]; 63 g ai/ha,0
same,phytotoxicity rating ECHCG,[14]; 250 g ai/ha,50
same,phytotoxicity rating DIGSA,[15]; 63 g ai/ha,0
same,phytotoxicity rating DIGSA,[15]; 250 g ai/ha,40
same,phytotoxicity rating AMARE,[16]; 63 g ai/ha,80
same,phytotoxicity rating AMARE,[16]; 250 g ai/ha,99
same,phytotoxicity rating SETVI,[17]; 63 g ai/ha,10
same,phytotoxicity rating SETVI,[17]; 250 g ai/ha,45
same,phytotoxicity rating CASOB,[18]; 63 g ai/ha,50
same,phytotoxicity rating CASOB,[18]; 250 g ai/ha,95
same,phytotoxicity rating CHEAL,[19]; 63 g ai/ha,100
same,phytotoxicity rating CHEAL,[19]; 250 g ai/ha,100
same,phytotoxicity rating IPOHE,[20]; 63 g ai/ha,100
same,phytotoxicity rating IPOHE,[20]; 250 g ai/ha,100
same,phytotoxicity rating XANST,[21]; 63 g ai/ha,100
same,phytotoxicity rating XANST,[21]; 250 g ai/ha,100
same,phytotoxicity rating SORHA,[22]; 63 g ai/ha,35
same,phytotoxicity rating SORHA,[22]; 250 g ai/ha,55
same,phytotoxicity rating AMBEL,[23]; 63 g ai/ha,100
same,phytotoxicity rating AMBEL,[23]; 250 g ai/ha,100
same,phytotoxicity rating ABUTH,[24]; 63 g ai/ha,100
same,phytotoxicity rating ABUTH,[24]; 250 g ai/ha,100
same,phytotoxicity rating ECHCO,[25]; 63 g ai/ha,35
same,phytotoxicity rating ECHCO,[25]; 250 g ai/ha,50
same,phytotoxicity rating DIGSA,[26]; 63 g ai/ha,20
same,phytotoxicity rating DIGSA,[26]; 250 g ai/ha,35
same,phytotoxicity rating AMARE,"[27]; 63 g ai/ha, scale 0-100 (0 no damage, 100 complete death)",100
same,phytotoxicity rating AMARE,"[27]; 250 g ai/ha, scale 0-100",100
same,phytotoxicity rating SETVI,[28]; 63 g ai/ha,35
same,phytotoxicity rating SETVI,[28]; 250 g ai/ha,60
same,phytotoxicity rating CASOB,[29]; 63 g ai/ha,75
same,phytotoxicity rating CASOB,[29]; 250 g ai/ha,95
same,phytotoxicity rating CHEAL,[30]; 63 g ai/ha,100
same,phytotoxicity rating CHEAL,[30]; 250 g ai/ha,100
